# Source: ChEMBL document CHEMBL1201862, “PubChem BioAssay data set” (2004)
# Calls of active or inactive are those of the source. Cut-off read from the data, not from the text of the source: actives have a measured IC50 and inactives only a lower limit.
# Target: Envelope glycoprotein gp160 (Human immunodeficiency virus 1, UniProt Q6QLK5)
# Assay: inhibitors of HIV fusion peptide binding, primary screen, biochemical, uHTS, fluorescence dequenching (AID 1986)
# Chain of Envelope glycoprotein gp160 (Q6QLK5 whole entry, the tested form may be a part): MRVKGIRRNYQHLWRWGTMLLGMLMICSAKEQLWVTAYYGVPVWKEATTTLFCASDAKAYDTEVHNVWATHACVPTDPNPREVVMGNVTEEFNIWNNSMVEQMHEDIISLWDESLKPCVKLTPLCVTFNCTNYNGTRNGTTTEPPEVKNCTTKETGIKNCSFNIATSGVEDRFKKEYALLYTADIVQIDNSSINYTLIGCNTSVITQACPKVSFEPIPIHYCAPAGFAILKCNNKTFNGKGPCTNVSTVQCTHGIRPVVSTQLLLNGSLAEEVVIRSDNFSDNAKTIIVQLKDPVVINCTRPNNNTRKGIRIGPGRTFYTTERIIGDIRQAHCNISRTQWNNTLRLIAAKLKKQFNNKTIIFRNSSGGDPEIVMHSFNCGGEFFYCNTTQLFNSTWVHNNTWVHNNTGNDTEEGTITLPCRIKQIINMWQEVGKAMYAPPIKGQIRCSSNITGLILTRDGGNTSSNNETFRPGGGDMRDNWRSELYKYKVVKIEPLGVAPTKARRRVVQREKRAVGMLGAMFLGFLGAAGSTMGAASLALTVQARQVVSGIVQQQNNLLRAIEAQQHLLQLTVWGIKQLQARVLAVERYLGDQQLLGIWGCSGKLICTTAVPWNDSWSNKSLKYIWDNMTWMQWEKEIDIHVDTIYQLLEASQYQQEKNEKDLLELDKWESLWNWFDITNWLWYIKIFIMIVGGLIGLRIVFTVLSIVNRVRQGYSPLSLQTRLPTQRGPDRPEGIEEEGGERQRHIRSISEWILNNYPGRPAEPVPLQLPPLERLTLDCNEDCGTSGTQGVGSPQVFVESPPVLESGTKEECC
row,Compound,IC50
1,Cc1ccc(NC(S)=NNc2ccc([N+](=O)[O-])cc2S(=O)(=O)Nc2ccccc2C(=O)O)cc1C,7.4 µM (active)
2,CC(C)CS(=O)(=O)C1=NN2C(=N)/C(=C\c3ccc(OC(=O)c4ccco4)cc3)C(=O)N=C2S1,12.8 µM (active)
3,N#C/C(=C\c1ccc(O)c([N+](=O)[O-])c1)c1nc2ccccc2s1,25.2 µM (active)
4,O=C(O)/C(CC(=O)c1ccc(Cl)cc1)=N/Nc1ccc([N+](=O)[O-])cc1[N+](=O)[O-],20.8 µM (active)
